Measurements as given in patent publication US6451336B2, “Method for increasing brown fat, comprising administering conjugated linoleic acid as active ingredient” (Rinoru Oil Mills Co., Ltd., priority 1999, dated 2002).

How the values were obtained:
[1] = system: carnitine palmitoyltransferase (CPT); assay: Carnitine palmitoyltransferase (CPT) activity in brown adipose tissues of rats fed CLA; type: in vivo, Sprague-Dawley male rats; conditions: 1.0% CLA in diet, 4 weeks
Excerpt: (§1) Sprague-Dawley male rats of four weeks of age were pre-bred, and then divided into two groups (each group consisting of 8 rats), a 1.0% linoleic acid group (a control group) and a 1.0% CLA group. The experimental diet shown in Table 1 and water were then freely fed to these two groups of rats. […] Four weeks after the initiation of feeding, the 8 rats constituting each group were sacrificed, and the organs were taken out.
Further, the activity of carnitine palmitoyltransferase (CPT) as a rate-determining enzyme in β-oxidation of fatty acids was measured in brown adipose tissues.

[2] = Feeding of 1.0% CLA diet to rats for four weeks: growth and weight of organs; type: in vivo, Sprague-Dawley male rats; conditions: 1.0% CLA in diet, 4 weeks
Excerpt: as §1

conjugated linoleic acid [CLA]
Activity of carnitine palmitoyltransferase (CPT) in brown adipose tissues, in words, compared with control group [1]: higher | Food intake, in words, compared with 1.0% linoleic acid control group [2]: without affecting | Weight gain, in words, compared with 1.0% linoleic acid control group [2]: without affecting | Weight of adipose tissues around the kidney (white adipose tissues), in words, compared with control group [2]: significantly decreased | Weight of brown adipose tissues in the back, in words, compared with control group [2]: significantly increased | Weight of organs: Brain [2]: 0.38 g/100 g body weight | Weight of organs: Brown adipose tissue [2]: 0.21 g/100 g body weight | Weight of organs: Epididymal adipose tissue [2]: 1.17 g/100 g body weight | Weight of organs: Heart [2]: 0.36 g/100 g body weight | Weight of organs: Kidney [2]: 0.78 g/100 g body weight | Weight of organs: Liver [2]: 4.40 g/100 g body weight | Weight of organs: Lung [2]: 0.40 g/100 g body weight | Weight of organs: Spleen [2]: 0.22 g/100 g body weight | Weight of tissues of liver, kidney, heart, lungs, spleen and brain, in words, compared with control group [2]: no difference | Food intake ([2]; free feeding): 21.0 g/day | Weight gain ([2]; free feeding): 227 g/4 weeks | Weight of organs: Peri-renal adipose tissue ([2]; white adipose tissue): 1.16 g/100 g body weight
